Data taken from PubChem BioAssay (NCI).
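Where inhibition never reached the appropriate level, the endpoint shown equals the highest concentration tested. Otherwise, values were interpolated linearly from a five-concentration, 48-hour dose response in 96-well plates. GI50 is the concentration that inhibits growth by half. Definition used: TGI = concentration required for complete inhibition of growth.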

How the values were obtained:
Test in all cases: growth of human tumour cells (NCI), 48 h
[1] = test system: TK-10 renal
[2] = test system: A498 renal
[3] = test system: SR leukemia
[4] = test system: BT-549 breast
[5] = test system: IGROV1 ovarian
[6] = test system: SNB-75 CNS
[7] = test system: MDA-MB-231 breast
[8] = test system: RXF 393 renal
[9] = test system: PC-3 prostate
[10] = test system: HCC-2998 colon

**Q.** How did the GI50 [1] turn out when `CSc1nc2c(c(=O)[nH]1)N=C1c3ccccc3C(=O)C1C(c1ccc(F)cc1)N2` (stereo not given) was run?
**A.** 12.9 µM

**Q.** And the TGI [1]?
**A.** 37.6 µM

**Q.** What about the GI50 [2] of the same compound?
**A.** 4.88 µM

**Q.** What about the TGI [2] of the same compound?
**A.** 20.5 µM

**Q.** What about the GI50 [3] of the same compound?
**A.** 6.31 µM

**Q.** What about the TGI [3] of the same compound?
**A.** > 100 µM

**Q.** And the GI50 [4]?
**A.** 8.5 µM

**Q.** And the TGI [4]?
**A.** 41.2 µM

**Q.** And the GI50 [5]?
**A.** 11.3 µM

**Q.** And the TGI [5]?
**A.** > 100 µM

**Q.** What about the GI50 [6] of the same compound?
**A.** 1.46 µM

**Q.** And the TGI [6]?
**A.** 14.9 µM

**Q.** What about the GI50 [7] of the same compound?
**A.** 12.6 µM

**Q.** And the TGI [7]?
**A.** > 100 µM

**Q.** What about the GI50 [8] of the same compound?
**A.** 14.5 µM

**Q.** And the TGI [8]?
**A.** 36.6 µM

**Q.** What about the GI50 [9] of the same compound?
**A.** 7.72 µM

**Q.** And the TGI [9]?
**A.** 95.2 µM

**Q.** What about the GI50 [10] of the same compound?
**A.** 12.2 µM

**Q.** And the TGI [10]?
**A.** 30.5 µM

**Q.** What does the source list for `CC(C)(C)N1CCC1C(N)=O` (stereo not given)?
**A.** GI50 [1]: > 100 µM; TGI [1]: > 100 µM; GI50 [2]: > 100 µM; TGI [2]: > 100 µM; GI50 [3]: > 100 µM; TGI [3]: > 100 µM; GI50 [4]: > 100 µM; TGI [4]: > 100 µM; GI50 [5]: > 100 µM; TGI [5]: > 100 µM; GI50 [6]: > 100 µM; TGI [6]: > 100 µM; GI50 [7]: > 100 µM; TGI [7]: > 100 µM; GI50 [8]: > 100 µM; TGI [8]: > 100 µM; GI50 [9]: > 100 µM; TGI [9]: > 100 µM; GI50 [10]: > 100 µM; TGI [10]: > 100 µM

**Q.** What does the source list for `COc1ccc(-n2c(SCc3cc(OC)c(OC)c(OC)c3)nc3ccc(C)cc3c2=O)c(OC)c1`?
**A.** GI50 [1]: 93.8 µM; TGI [1]: > 100 µM; GI50 [2]: 2.25 µM; TGI [2]: 40.3 µM; GI50 [3]: 1.87 µM; TGI [3]: 25.5 µM; GI50 [4]: 4.31 µM; TGI [4]: > 100 µM; GI50 [5]: 7.2 µM; TGI [5]: > 100 µM; GI50 [6]: 3.14 µM; TGI [6]: > 100 µM; GI50 [7]: 4.15 µM; TGI [7]: > 100 µM; GI50 [8]: 4 µM; TGI [8]: > 100 µM; GI50 [9]: 3.63 µM; TGI [9]: > 100 µM; GI50 [10]: 6.75 µM; TGI [10]: > 100 µM

**Q.** Which results are given for `Cc1ccc(C(=O)Nc2ccc(CN3CCN(C)CC3)c(C(F)(F)F)c2)cc1C#Cc1cnc(N)cc1C#N`?
**A.** GI50 [1]: 0.19 µM; TGI [1]: 0.833 µM; GI50 [2]: 0.159 µM; TGI [2]: 0.701 µM; GI50 [3]: 0.162 µM; TGI [3]: 1.23 µM; GI50 [4]: 0.654 µM; TGI [4]: 2.67 µM; GI50 [5]: 0.0265 µM; TGI [5]: 0.276 µM; GI50 [6]: 0.112 µM; TGI [6]: 0.798 µM; GI50 [7]: 0.112 µM; TGI [7]: 0.621 µM; GI50 [8]: 0.129 µM; TGI [8]: 0.706 µM; GI50 [9]: 0.343 µM; TGI [9]: 1.76 µM; GI50 [10]: 0.407 µM; TGI [10]: 1.17 µM

**Q.** For `COP(=O)(OC)C(NC(c1ccccc1)c1ccccc1)c1ccc2c(c1)OCO2` (stereo not given), which GI50 [1] is on record?
**A.** 44.5 µM

**Q.** What about the TGI [1] of the same compound?
**A.** > 100 µM

**Q.** What about the GI50 [2] of the same compound?
**A.** 22.8 µM

**Q.** What about the TGI [2] of the same compound?
**A.** 44.2 µM

**Q.** What about the GI50 [3] of the same compound?
**A.** 24.4 µM

**Q.** And the TGI [3]?
**A.** 48.9 µM

**Q.** What about the GI50 [4] of the same compound?
**A.** 20.6 µM

**Q.** And the TGI [4]?
**A.** 38.8 µM

**Q.** What about the GI50 [5] of the same compound?
**A.** 22 µM

**Q.** And the TGI [5]?
**A.** 73.6 µM

**Q.** What about the GI50 [6] of the same compound?
**A.** 30.5 µM

**Q.** And the TGI [6]?
**A.** 67.2 µM

**Q.** What about the GI50 [7] of the same compound?
**A.** 14 µM

**Q.** And the TGI [7]?
**A.** 37.9 µM

**Q.** What about the GI50 [8] of the same compound?
**A.** 23 µM

**Q.** What about the TGI [8] of the same compound?
**A.** 50.1 µM

**Q.** What about the GI50 [9] of the same compound?
**A.** 16.4 µM

**Q.** What about the TGI [9] of the same compound?
**A.** 66.3 µM

**Q.** And the GI50 [10]?
**A.** 33.5 µM

**Q.** What about the TGI [10] of the same compound?
**A.** > 100 µM

**Q.** With `COc1cc(Nc2nc3cc(N)cc(N)c3nc2-c2ccccc2)cc(OC)c1` as the compound, how does the GI50 [1] read?
**A.** 13.1 µM

**Q.** And the TGI [1]?
**A.** 42.7 µM

**Q.** What about the GI50 [2] of the same compound?
**A.** 4.91 µM

**Q.** And the TGI [2]?
**A.** 22.4 µM

**Q.** What about the GI50 [3] of the same compound?
**A.** 5.67 µM

**Q.** What about the TGI [3] of the same compound?
**A.** > 100 µM

**Q.** What about the GI50 [4] of the same compound?
**A.** 4.69 µM

**Q.** What about the TGI [4] of the same compound?
**A.** 31.8 µM

**Q.** And the GI50 [5]?
**A.** 2.7 µM

**Q.** What about the TGI [5] of the same compound?
**A.** 17.1 µM

**Q.** And the GI50 [6]?
**A.** 3.7 µM

**Q.** What about the TGI [6] of the same compound?
**A.** 44.9 µM

**Q.** And the GI50 [7]?
**A.** 6.5 µM

**Q.** What about the TGI [7] of the same compound?
**A.** 34.3 µM

**Q.** What about the GI50 [8] of the same compound?
**A.** 3.15 µM

**Q.** And the TGI [8]?
**A.** 18.8 µM

**Q.** And the GI50 [9]?
**A.** 1.96 µM

**Q.** What about the TGI [9] of the same compound?
**A.** 10.9 µM

**Q.** What about the GI50 [10] of the same compound?
**A.** 24.3 µM

**Q.** What about the TGI [10] of the same compound?
**A.** > 100 µM

**Q.** `CCN(CC)c1ccc(/C=C\c2cc(C)c3cc(C)ccc3n2)cc1` was tested. Which GI50 [1] did it give?
**A.** 5.11 µM

**Q.** And the TGI [1]?
**A.** 36.7 µM

**Q.** What about the GI50 [2] of the same compound?
**A.** 2.19 µM

**Q.** What about the TGI [2] of the same compound?
**A.** 8.33 µM

**Q.** And the GI50 [3]?
**A.** 3.41 µM

**Q.** And the TGI [3]?
**A.** > 100 µM

**Q.** What about the GI50 [4] of the same compound?
**A.** 5.07 µM

**Q.** What about the TGI [4] of the same compound?
**A.** > 100 µM

**Q.** What about the GI50 [5] of the same compound?
**A.** 7.34 µM

**Q.** What about the TGI [5] of the same compound?
**A.** > 100 µM

**Q.** What about the GI50 [6] of the same compound?
**A.** 4.83 µM

**Q.** What about the TGI [6] of the same compound?
**A.** > 100 µM

**Q.** And the GI50 [7]?
**A.** 16.2 µM

**Q.** And the TGI [7]?
**A.** > 100 µM

**Q.** What about the GI50 [8] of the same compound?
**A.** 3.99 µM

**Q.** What about the TGI [8] of the same compound?
**A.** > 100 µM

**Q.** What about the GI50 [9] of the same compound?
**A.** 3.69 µM

**Q.** What about the TGI [9] of the same compound?
**A.** 81.1 µM

**Q.** What about the GI50 [10] of the same compound?
**A.** 4.44 µM

**Q.** What about the TGI [10] of the same compound?
**A.** 23.8 µM

**Q.** Which results are given for `C[C@]12CCC3[C@@H](C[C@@H]4SC(Nc5ccccc5)=N[C@@]45CC(=O)CC[C@]35C)[C@@H]1CCC2=O` (stereo not given in full)?
**A.** GI50 [1]: 7.46 µM; TGI [1]: 54.8 µM; GI50 [2]: 28.8 µM; TGI [2]: > 100 µM; GI50 [3]: 2.58 µM; TGI [3]: > 100 µM; GI50 [4]: 4.58 µM; TGI [4]: 38.9 µM; GI50 [5]: 8.21 µM; TGI [5]: > 100 µM; GI50 [6]: 5.4 µM; TGI [6]: 72.5 µM; GI50 [7]: 13.4 µM; TGI [7]: > 100 µM; GI50 [8]: 3.18 µM; TGI [8]: 14.2 µM; GI50 [9]: 5.52 µM; TGI [9]: 63.7 µM; GI50 [10]: 18.2 µM; TGI [10]: 44.8 µM

**Q.** What does the source list for `Cc1ccc2c(c1)nc(C(=O)c1ccco1)c(C(F)(F)F)[n+]2[O-]`?
**A.** GI50 [1]: > 100 µM; TGI [1]: > 100 µM; GI50 [2]: 1.66 µM; TGI [2]: 3.06 µM; GI50 [3]: 64.4 µM; TGI [3]: > 100 µM; GI50 [4]: 78.5 µM; TGI [4]: > 100 µM; GI50 [5]: 48 µM; TGI [5]: > 100 µM; GI50 [6]: 76.7 µM; TGI [6]: > 100 µM; GI50 [7]: > 100 µM; TGI [7]: > 100 µM; GI50 [8]: > 100 µM; TGI [8]: > 100 µM; GI50 [9]: 50.2 µM; TGI [9]: > 100 µM; GI50 [10]: > 100 µM; TGI [10]: > 100 µM

**Q.** What does the source list for `C=C1C(=O)O[C@H]2[C@H]1CC/C(COC(=O)NCc1cc3ccccc3[nH]1)=C\CC[C@@]1(C)O[C@@H]21`?
**A.** GI50 [1]: 2.26 µM; TGI [1]: 4.19 µM; GI50 [2]: 10.9 µM; TGI [2]: 23.4 µM; GI50 [3]: 2.32 µM; TGI [3]: 8.75 µM; GI50 [4]: 1.56 µM; TGI [4]: 3.14 µM; GI50 [5]: 1.46 µM; TGI [5]: 3.46 µM; GI50 [6]: 3.91 µM; TGI [6]: 19.2 µM; GI50 [7]: 1.65 µM; TGI [7]: 3.57 µM; GI50 [8]: 1.09 µM; TGI [8]: 2.36 µM; GI50 [9]: 1.63 µM; TGI [9]: 3.46 µM; GI50 [10]: 2.02 µM; TGI [10]: 3.67 µM

**Q.** What does the source list for `COc1ccc(/C=C/C(=O)c2cc3c(N)c(C(=O)Nc4ccccc4Cl)sc3nc2C)cc1`?
**A.** GI50 [1]: 2.64 µM; TGI [1]: 30.5 µM; GI50 [2]: 0.866 µM; TGI [2]: 4.51 µM; GI50 [3]: 3.77 µM; TGI [3]: > 50 µM; GI50 [4]: 7.24 µM; TGI [4]: 32 µM; GI50 [5]: 2.72 µM; TGI [5]: > 50 µM; GI50 [6]: 1.12 µM; TGI [6]: 4.32 µM; GI50 [7]: 2.22 µM; TGI [7]: 20.3 µM; GI50 [8]: 0.846 µM; TGI [8]: 3.6 µM; GI50 [9]: 2.92 µM; TGI [9]: > 50 µM; GI50 [10]: 8 µM; TGI [10]: > 50 µM
